Values joined by “and” are separate entries in the source; they are usually repeats but may differ in a detail not shown here. Equal values may be shown once.
How the values were obtained:
[1] = Inhibition of Vibrio cholerae alpha-carbonic anhydrase preincubated for 15 mins by stopped-flow CO2 hydration assay
[2] = target: Carbonic anhydrase 1 (Homo sapiens, UniProt P00915); assay: Inhibition of human carbonic anhydrase 1 preincubated for 15 mins by stopped-flow CO2 hydration assay
Sequence of Carbonic anhydrase 1 (P00915 whole entry): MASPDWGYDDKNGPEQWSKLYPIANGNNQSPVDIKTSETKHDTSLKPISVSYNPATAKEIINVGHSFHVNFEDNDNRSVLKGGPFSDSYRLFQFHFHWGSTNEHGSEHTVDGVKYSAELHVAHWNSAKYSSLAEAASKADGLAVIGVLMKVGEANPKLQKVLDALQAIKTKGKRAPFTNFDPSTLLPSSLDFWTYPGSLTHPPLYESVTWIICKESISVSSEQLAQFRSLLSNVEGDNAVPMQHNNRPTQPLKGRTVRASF

| Structure (SMILES) | Ki [1] | Ki [2] |
| --- | --- | --- |
| CCN(CC)C(=S)S [DITIOCARB] | 43 µM | – |
| O=S(O)O [SULFUROUS ACID] | 68 µM | – |
| S=C(S)S [CARBONOTRITHIOIC ACID] | 88 µM | – |
| O=S(=O)(O)OOS(=O)(=O)O | 84100 µM | – |
| [N-]=[N+]=[N-] | 760 µM | – |
| O=[As](O)(O)c1ccccc1 [PHENYLARSONIC ACID] | 23 µM | – |
| O=NO [NITROUS ACID] | 34100 µM | – |
| NS(=O)(=O)O [SULFAMATE] | 31 µM | – |
| F[B-](F)(F)F | > 200000 µM | > 200000 µM |
| S [HYDROGEN SULFIDE] | 74 µM | – |
| [O-][Cl+3]([O-])([O-])O [PERCHLORATE] | > 200000 µM | – |
| F [FLUORIDE ION] | 800 µM | – |
| O=[Te](=O)(O)O | 14500 µM | – |
| NS(N)(=O)=O [SULFAMIDE] | 8 µM | – |
| N#CO [CYANATE] | 75 µM | – |
| N=C=S [ISOTHIOCYANATE] | 820 µM | – |
| O=[Se](=O)(O)O [SELENIC ACID] | 60800 µM | – |
| O=P(O)(O)OP(=O)(O)O [PYROPHOSPHORIC ACID] | 2960 µM | – |
| I [IODIDE] | 9730 µM | – |
| OB(O)c1ccccc1 [PHENYLBORONIC ACID] | 7 µM | – |
| O=S(=O)(O)O [SULFURIC ACID] | 850 µM | – |
| Br [BROMIDE] | 28000 µM | – |
| Cl [HYDROCHLORIC ACID] | 930 µM | – |
| O=C(O)O [BICARBONATE] | 4640 µM and 5130 µM | – |
| O=S(=O)(O)NS(=O)(=O)O | 88200 µM | – |
| O=[N+]([O-])O | 670 µM | – |
| N=C=[Se] [ISOSELENOCYANATE] | 760 µM | 8.5 µM |

Reference: ChEMBL document CHEMBL3763131, “Anion inhibition studies of the β-carbonic anhydrase from the pathogenic bacterium Vibrio cholerae” (Bioorg Med Chem Lett, 2016)
